This experiment concerns the target T1, GAL4-FXR LBD (Rattus norvegicus, UniProt Q62735).
T1 construct: expressed in transfected cells; host or cells: CV-1 (monkey)
T1 sequence (Q62735 245-469 limits assumed): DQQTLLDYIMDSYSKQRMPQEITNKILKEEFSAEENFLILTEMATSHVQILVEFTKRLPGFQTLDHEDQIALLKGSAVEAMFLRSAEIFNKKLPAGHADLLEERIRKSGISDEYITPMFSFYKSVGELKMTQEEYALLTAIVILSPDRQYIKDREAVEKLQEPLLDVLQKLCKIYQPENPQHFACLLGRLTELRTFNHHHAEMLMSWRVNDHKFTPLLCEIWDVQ
The experiment in a line: GAL4 DBD-FXR LBD chimeric receptor transcriptional activation assay (with/without RXR). Format: cell-based. The settings on record: for selectivity for FXR relative to other NHRs: chimeric NHR constructs; for efficacy compared with GW4064: in the absence of RXR; for activation of chimeric FXR construct: in the presence and absence of RXR. The method, then:
FIGS. 3A-3E collectively show the results of ligand activation of CV-1 cells co-transfected with a luciferase reporter gene with a variety of receptor expression constructs. […] FIGS. 3C-3E show the results of CV-1 cells transiently transfected with the indicated reporter constructs, treated with either DMSO or 10 μM of the compounds fexaramine (3C), fexarine (3D), fexarene (3E). Reporter activity was normalized to the internal control and the data plotted as fold activation relative to untreated cells. All transfections contained CMX-βgal as an internal control.
The expression plasmids pCMX, pCMX-LacZ, pCMX-mFXRFL, pCMX-hRXRFL, pCMX-GALDBD-rFXRLBD and other pCUX-GALDBD-NR LBDs (hRXRα, hPPARαγδ, mPXR, hPXR, hLXRα, HTRβ, hRARβ, mCAR, mERR3 and hVDR) have been described elsewhere (Blumberg et al. (1998). SXR, a novel steroid and xenobiotic-sensing nuclear receptor. Genes Dev. 12(20), 3195-205). The reporter plasmids pMH2004-TK-luc, pTKECRE*6-luc, pTKER-8*2-luc and pMRP-2-luc also have been described elsewhere. The hPLTP-luc promoter was kindly provided by Dr Dennis Dowhan and the hIBABP-luc promoter was created from a plasmid provided by Dr Philippe Besnard.
For transfection of these constructs, monkey CV-1 HEPG2 and HEK293T cells were grown in DMEM supplemented with 10% FBS, 50 U/ml penicillin G, and 50 μg/ml streptomycin sulfate at 37° C. in 7% CO2. CV-1 cells (60%-70% confluence, 48-well plate) were cotransfected with 16.6 ng of the appropriate expression vector, 100 ng of reporter plasmid, and 100 ng of pCMX-LacZ in 200 μl of DMEM containing 10% FBS by the N-[1-(2,3-dioleoyloxy)propyl]-N,N,N-trimethylammonium methylsulfate (DOTAP)-mediated procedure. After 24 hr, the medium was replaced, and cells were harvested and assayed for luciferase activity 36-48 hr after transfection. The luciferase activity was normalized to the level of β-galactosidase activity. Each transfection was performed in triplicate and repeated at least three times.
Cell-based transcriptional activation assays using chimeric nuclear hormone receptor (NHR) constructs were established to measure the selectivity of the compounds to FXR relative to other NHRs (Forman et al. (1995). Identification of a nuclear receptor that is activated by farnesol metabolites. Cell 81, 687-693). These assays used fusion proteins with the yeast GAL4 DNA binding domain connected to the ligand-binding domain (LBD) of NHRs. These constructs were co-transfected with a thymidine kinase C minimal promoter reporter vector containing four copies of the GAL4 binding site. Titration experiments were then performed using the identified compounds. […] Addition of RXR had no effect on the activation potential of fexaramine, fexarine, fexarene in this assay.

`COC(=O)/C=C/c1cccc(N(Cc2ccc(-c3ccc(N(C)C)cc3)cc2)C(=O)C2CCCCC2)c1` [fexaramine]: the “effect of addition of RXR on activation potential” value (“effect of addition of RXR” below) is listed as “no effect”, the “selectivity for FXR relative to other NHRs” value is on record as “highly selective for FXR”, the “efficacy compared with GW4064” value is “more efficacious ligands for FXR than GW4064” and the “activation of chimeric FXR construct” value is on record as “activate”.

In the case of `COC(=O)/C=C/c1cccc(N(Cc2ccc(/C=C/c3ccccc3)cc2)C(=O)C2CCCCC2)c1` [fexarene], the “effect of addition of RXR” value is listed as “no effect”, the “selectivity for FXR relative to other NHRs” value is on record as “highly selective for FXR”, the “efficacy compared with GW4064” value was “more efficacious ligands for FXR than GW4064” and the “activation of chimeric FXR construct” value is “activate”.

Take `COC(=O)/C=C/c1cccc(N(Cc2ccc(-c3ccc4c(c3)OCO4)cc2)C(=O)C2CCCCC2)c1` [fexarine]: the “effect of addition of RXR” value is “no effect”, the “selectivity for FXR relative to other NHRs” value is “highly selective for FXR”, the “efficacy compared with GW4064” value is reported as “more efficacious ligands for FXR than GW4064” and the “activation of chimeric FXR construct” value was “activate”.

In the case of `COC(=O)/C=C/c1cccc(N(Cc2ccc(-c3ccccc3OC)cc2)C(=O)C(C)C)c1` [SRI-1], the “activation of chimeric FXR construct” value is on record as “little or no activity”.

With `CC(C)c1onc(-c2c(Cl)cccc2Cl)c1COc1ccc(/C=C/c2cccc(C(=O)O)c2)c(Cl)c1` [GW4064, reference compound], the “activation of chimeric FXR construct” value is on record as “activate”.

On to `COC(=O)/C=C/c1cccc(N(Cc2ccc(-c3ccc(C(C)(C)C)cc3)cc2)C(=O)C(C)C)c1` [SRI-2], for which the “activation of chimeric FXR construct” value is listed as “little or no activity”.

Values taken from patent US7647217B2, “Structure of the farnesoid X receptor ligand binding domain and methods of use therefor” (The Salk Institute for Biological Studies, priority 2002, dated 2010).
